{"source": "patent US20050090453A1", "about": "“Methods of modulating IL-6” (SOLBEC PHARMACEUTICALS CO., LTD., priority 2003, published 2005)", "key": {"[1]": {"test_system": "five human malignant mesothelioma cell lines (Ju77, Lo68, No36, One58, Sty51)", "assay": "MTT assay, five mesothelioma cell lines", "assay_type": "cell-based", "details": "range over five mesothelioma cell lines, 72 hours, read-out: IC50 (concentration required to reduce cell viability by 50%)", "excerpt": "(§1) A panel of five human malignant mesothelioma cell lines, established from the pleural fluid of patients with the disease. These cell lines, designed Ju77, Lo68, No36, One58 and Sty51 have been previously described (1). None of the patients from whom the cell lines were derived had been exposed to chemotherapeutic agents. Two cell lines were purchased from ATCC (Rockville, Md.) for use as controls: HT29—a human colon adenocarcinoma (ATCC HTB38) and A549—a human lung adenocarcinoma (ATCC CCL185). These cell lines are representative of tumours that are generally drug resistant but have shown some responses to newer chemotherapy agents.\n(§2) Cells were maintained in RPMI-1640 containing 5% fetal calf serum (Life Technologies Inc., Melbourne), 5×10^−5 M 2-mercaptoethanol, 20 mM HEPES buffer, 100 IU benzylpenicillin/ml (CSL, Perth) and 50 μg gentamicin/ml (David Bull Laboratories, Melbourne), in water saturated air containing 5% CO2 at 37° C. This growth medium will henceforth be called RF-5. All cells were checked at 3 monthly intervals for Mycoplasma and remained negative to testing.\n(§3) Drug sensitivities for each cell line were determined by use of the MTT (Sigma-Aldrich, NSW) assay modified from the method described by Mossman (2). […] Optical densities were determined using a SpectraMax 250 plate reader (Molecular Devices) at 570 nm. […]"}, "[2]": {"test_system": "mesothelioma and control cells", "assay": "MTT assay, drug toxicity in mesothelioma and control cells", "assay_type": "cell-based, human", "details": "all cell lines", "excerpt": "as §1, §2, §3"}, "[3]": {"test_system": "A549 human lung adenocarcinoma", "assay": "MTT assay, A549", "assay_type": "cell-based", "details": "72 hours, read-out: IC50 (concentration required to reduce cell viability by 50%)", "excerpt": "as §1, §2, §3"}, "[4]": {"test_system": "HT29 human colon adenocarcinoma", "assay": "MTT assay, HT29", "assay_type": "cell-based", "details": "HT-29, 72 hours, read-out: IC50 (concentration required to reduce cell viability by 50%)", "excerpt": "as §1, §2, §3"}, "IL-6 [5]": {"test_system": "IL-6", "assay": "IL-6 ELISA of media from treated mesothelioma and control cells", "assay_type": "cell-based, human", "details": "for surge in IL-6 production: as the concentration of drug approached its IC50 value", "method": "The IL-6 assay was performed using a human IL-6 ELISA kit (eBioscience, USA) according to the manufacturers protocol. Briefly ninety six well plates were incubated at room temperature overnight with 100 μL per well of monoclonal antihuman IL-6 antibody in coating buffer (0.1M Na2CO3/NaHCO3, pH 9.6). The plate was washed five times with PBS and then 200 μL of blocking buffer added to each well and incubated for one hour at room temperature. The plate was then washed five times in PBS with 0.005% Tween 20 (Sigma-Aldrich, NSW). 100 μL of each sample to be assayed was added to each well and also IL-6 standard solutions ranging from 0.6-400 pg/ml were used to generate a standard curve.\nAfter a one hour incubation, the plate was washed as above and 100 μL of biotinylated-IL-6 antibody solution added for a further hour. Following further washes, 100 μL of streptavidin-HRP conjugate solution was added for 30 minutes and the plates washed. 100 μL of ABTS solution was added and following incubation for 30 minutes at 37° C., the plate was read at 405 nm on a SpectraMax 250 plate reader (Molecular Devices) and the concentration of IL-6 for each sample calculated from the standard curve.\nSamples for use in the ELISA were prepared by seeding of cells in 96 well plates with or without chemotherapy as described previously. As in the previous experiments chemotherapy was added 24 hours after cell seeding. For cell lysis experiments 300 μl of distilled water was added to each well and lysis of cells was confirmed by visual inspection. Media from these assays was removed at the appropriate time and stored at −20° C. until the ELISA was performed. The concentration of IL-6 for each cell line represents the mean value generated from three separate experiments. The results from chemotherapy effects on IL-6 production are representative of two or more experiments."}, "IL-6 [6]": {"test_system": "IL-6", "details": "mesothelioma cells, concentrations producing a 5-30% reduction in relative cell growth; reference 3; cited from earlier work"}, "[7]": {"test_system": "NO36 mesothelioma cell line", "assay": "MTT assay, NO36", "assay_type": "cell-based, human", "excerpt": "as §1, §2, §3"}}}
{"smiles": "CC(=O)O[C@@]12CO[C@@H]1C[C@H](O)[C@@]1(C)C(=O)[C@H](O)C3=C(C)[C@@H](OC(=O)[C@H](O)[C@@H](NC(=O)OC(C)(C)C)c4ccccc4)C[C@@](O)([C@@H](OC(=O)c4ccccc4)[C@H]21)C3(C)C", "note": "[docetaxel, Docetaxel]", "values": [{"measurement": "IC50", "setting": "[1]", "value": "4.7 to 7.6", "unit": "ng/mL"}, {"measurement": "shape of dose response curve", "setting": "[2]", "value": "plateau effect is clear for all cell lines"}, {"measurement": "IC50", "setting": "[3]", "value": 5.4, "unit": "ng/mL"}, {"measurement": "IC50", "setting": "[4]", "value": 2, "unit": "ng/mL"}, {"measurement": "surge in IL-6 production", "setting": "IL-6 [5]", "value": "a surge in IL-6 production was measured"}, {"measurement": "IL-6 production compared to untreated cells", "setting": "IL-6 [5]; concentrations below the IC50", "value": "did not effect IL-6 production"}]}
{"smiles": "Nc1ccn([C@@H]2O[C@H](CO)[C@@H](O)C2(F)F)c(=O)n1", "note": "[gemcitabine]", "values": [{"measurement": "IC50", "setting": "[1]", "value": "0.8 to 5", "unit": "ng/mL"}, {"measurement": "IC50", "setting": "[3]", "value": 1.75, "unit": "ng/mL"}, {"measurement": "IC50", "setting": "[4]", "value": 6.7, "unit": "ng/mL"}, {"measurement": "surge in IL-6 production", "setting": "IL-6 [5]", "value": "a surge in IL-6 production was measured"}, {"measurement": "change in IL-6 concentration relative to untreated cells", "setting": "IL-6 [6]", "value": "decrease in the IL-6 concentration by up to one half"}, {"measurement": "viability at 0.01 µg/mL", "setting": "[7]; Homo sapiens, NO36 cells at 10 ng/ml", "value": 50, "unit": "%"}, {"measurement": "concentration at which cell death reaches a plateau", "setting": "[7]; NO36 cells, MTT", "value": "approximately 3 ng/ml"}]}
